Experimental data taken from the OligoGym collection.
Oligonucleotides are given in HELM: sugar(base)linkage, 5' to 3'; d 2'-deoxyribose, r ribose, m 2'-O-methylribose, p phosphate. ss, as = sense and antisense strand

Each substance was assayed against SOST (assay: reporter assay of Huesken 2005). Details: siRNA.
Note: test concentration or dose not given here.

Substance	normalised inhibition (eCFP-eYFP dual reporter) [%]
RNA1{r(G)p.r(C)p.r(C)p.r(A)p.r(G)p.r(G)p.r(G)p.r(G)p.r(U)p.r(G)p.r(G)p.r(C)p.r(A)p.r(G)p.r(G)p.r(C)p.r(G)p.r(U)p.r(U)p.d(T)p.d(T)}|RNA2{r(A)p.r(A)p.r(C)p.r(G)p.r(C)p.r(C)p.r(U)p.r(G)p.r(C)p.r(C)p.r(A)p.r(C)p.r(C)p.r(C)p.r(C)p.r(U)p.r(G)p.r(G)p.r(C)p.d(C)p.d(C)}$$$RNA1{StrandType:ss}|RNA2{StrandType:as}$	77.7
RNA1{r(G)p.r(C)p.r(C)p.r(C)p.r(A)p.r(A)p.r(C)p.r(G)p.r(C)p.r(C)p.r(A)p.r(U)p.r(C)p.r(G)p.r(G)p.r(C)p.r(C)p.r(G)p.r(C)p.d(T)p.d(T)}|RNA2{r(G)p.r(C)p.r(G)p.r(G)p.r(C)p.r(C)p.r(G)p.r(A)p.r(U)p.r(G)p.r(G)p.r(C)p.r(G)p.r(U)p.r(U)p.r(G)p.r(G)p.r(G)p.r(C)p.d(A)p.d(G)}$$$RNA1{StrandType:ss}|RNA2{StrandType:as}$	64.3
RNA1{r(G)p.r(C)p.r(C)p.r(G)p.r(C)p.r(G)p.r(C)p.r(G)p.r(C)p.r(G)p.r(C)p.r(G)p.r(C)p.r(A)p.r(A)p.r(G)p.r(G)p.r(U)p.r(G)p.d(T)p.d(T)}|RNA2{r(C)p.r(A)p.r(C)p.r(C)p.r(U)p.r(U)p.r(G)p.r(C)p.r(G)p.r(C)p.r(G)p.r(C)p.r(G)p.r(C)p.r(G)p.r(C)p.r(G)p.r(G)p.r(C)p.d(G)p.d(C)}$$$RNA1{StrandType:ss}|RNA2{StrandType:as}$	57.1
RNA1{r(G)p.r(C)p.r(G)p.r(A)p.r(C)p.r(C)p.r(U)p.r(A)p.r(G)p.r(U)p.r(G)p.r(G)p.r(G)p.r(C)p.r(C)p.r(C)p.r(G)p.r(A)p.r(C)p.d(T)p.d(T)}|RNA2{r(G)p.r(U)p.r(C)p.r(G)p.r(G)p.r(G)p.r(C)p.r(C)p.r(C)p.r(A)p.r(C)p.r(U)p.r(A)p.r(G)p.r(G)p.r(U)p.r(C)p.r(G)p.r(C)p.d(C)p.d(A)}$$$RNA1{StrandType:ss}|RNA2{StrandType:as}$	66
RNA1{r(G)p.r(C)p.r(G)p.r(C)p.r(G)p.r(C)p.r(A)p.r(A)p.r(G)p.r(G)p.r(U)p.r(G)p.r(C)p.r(G)p.r(C)p.r(C)p.r(U)p.r(G)p.r(G)p.d(T)p.d(T)}|RNA2{r(C)p.r(C)p.r(A)p.r(G)p.r(G)p.r(C)p.r(G)p.r(C)p.r(A)p.r(C)p.r(C)p.r(U)p.r(U)p.r(G)p.r(C)p.r(G)p.r(C)p.r(G)p.r(C)p.d(G)p.d(C)}$$$RNA1{StrandType:ss}|RNA2{StrandType:as}$	41.3
RNA1{r(G)p.r(C)p.r(G)p.r(U)p.r(U)p.r(C)p.r(A)p.r(A)p.r(G)p.r(A)p.r(A)p.r(U)p.r(G)p.r(A)p.r(U)p.r(G)p.r(C)p.r(C)p.r(A)p.d(T)p.d(T)}|RNA2{r(U)p.r(G)p.r(G)p.r(C)p.r(A)p.r(U)p.r(C)p.r(A)p.r(U)p.r(U)p.r(C)p.r(U)p.r(U)p.r(G)p.r(A)p.r(A)p.r(C)p.r(G)p.r(C)p.d(C)p.d(T)}$$$RNA1{StrandType:ss}|RNA2{StrandType:as}$	93.4
RNA1{r(G)p.r(C)p.r(U)p.r(A)p.r(C)p.r(C)p.r(G)p.r(C)p.r(G)p.r(C)p.r(G)p.r(C)p.r(A)p.r(G)p.r(C)p.r(G)p.r(C)p.r(G)p.r(U)p.d(T)p.d(T)}|RNA2{r(A)p.r(C)p.r(G)p.r(C)p.r(G)p.r(C)p.r(U)p.r(G)p.r(C)p.r(G)p.r(C)p.r(G)p.r(C)p.r(G)p.r(G)p.r(U)p.r(A)p.r(G)p.r(C)p.d(G)p.d(G)}$$$RNA1{StrandType:ss}|RNA2{StrandType:as}$	51.8
RNA1{r(G)p.r(C)p.r(U)p.r(C)p.r(C)p.r(G)p.r(G)p.r(C)p.r(C)p.r(A)p.r(G)p.r(U)p.r(G)p.r(C)p.r(G)p.r(G)p.r(C)p.r(C)p.r(C)p.d(T)p.d(T)}|RNA2{r(G)p.r(G)p.r(G)p.r(C)p.r(C)p.r(G)p.r(C)p.r(A)p.r(C)p.r(U)p.r(G)p.r(G)p.r(C)p.r(C)p.r(G)p.r(G)p.r(A)p.r(G)p.r(C)p.d(A)p.d(C)}$$$RNA1{StrandType:ss}|RNA2{StrandType:as}$	53
RNA1{r(G)p.r(C)p.r(U)p.r(G)p.r(C)p.r(A)p.r(C)p.r(U)p.r(U)p.r(C)p.r(A)p.r(C)p.r(C)p.r(C)p.r(G)p.r(C)p.r(U)p.r(A)p.r(C)p.d(T)p.d(T)}|RNA2{r(G)p.r(U)p.r(A)p.r(G)p.r(C)p.r(G)p.r(G)p.r(G)p.r(U)p.r(G)p.r(A)p.r(A)p.r(G)p.r(U)p.r(G)p.r(C)p.r(A)p.r(G)p.r(C)p.d(T)p.d(C)}$$$RNA1{StrandType:ss}|RNA2{StrandType:as}$	75.4
RNA1{r(G)p.r(G)p.r(A)p.r(C)p.r(C)p.r(G)p.r(A)p.r(G)p.r(G)p.r(C)p.r(C)p.r(G)p.r(C)p.r(U)p.r(C)p.r(G)p.r(G)p.r(C)p.r(C)p.d(T)p.d(T)}|RNA2{r(G)p.r(G)p.r(C)p.r(C)p.r(G)p.r(A)p.r(G)p.r(C)p.r(G)p.r(G)p.r(C)p.r(C)p.r(U)p.r(C)p.r(G)p.r(G)p.r(U)p.r(C)p.r(C)p.d(C)p.d(G)}$$$RNA1{StrandType:ss}|RNA2{StrandType:as}$	50.7
RNA1{r(G)p.r(G)p.r(A)p.r(C)p.r(U)p.r(U)p.r(C)p.r(G)p.r(G)p.r(G)p.r(A)p.r(C)p.r(C)p.r(G)p.r(A)p.r(G)p.r(G)p.r(C)p.r(C)p.d(T)p.d(T)}|RNA2{r(G)p.r(G)p.r(C)p.r(C)p.r(U)p.r(C)p.r(G)p.r(G)p.r(U)p.r(C)p.r(C)p.r(C)p.r(G)p.r(A)p.r(A)p.r(G)p.r(U)p.r(C)p.r(C)p.d(T)p.d(T)}$$$RNA1{StrandType:ss}|RNA2{StrandType:as}$	53.8
RNA1{r(G)p.r(G)p.r(A)p.r(G)p.r(C)p.r(U)p.r(C)p.r(A)p.r(A)p.r(G)p.r(G)p.r(A)p.r(C)p.r(U)p.r(U)p.r(C)p.r(G)p.r(G)p.r(G)p.d(T)p.d(T)}|RNA2{r(C)p.r(C)p.r(C)p.r(G)p.r(A)p.r(A)p.r(G)p.r(U)p.r(C)p.r(C)p.r(U)p.r(U)p.r(G)p.r(A)p.r(G)p.r(C)p.r(U)p.r(C)p.r(C)p.d(G)p.d(A)}$$$RNA1{StrandType:ss}|RNA2{StrandType:as}$	75
RNA1{r(G)p.r(G)p.r(G)p.r(C)p.r(G)p.r(G)p.r(C)p.r(C)p.r(U)p.r(C)p.r(C)p.r(C)p.r(C)p.r(A)p.r(C)p.r(C)p.r(A)p.r(C)p.r(C)p.d(T)p.d(T)}|RNA2{r(G)p.r(G)p.r(U)p.r(G)p.r(G)p.r(U)p.r(G)p.r(G)p.r(G)p.r(G)p.r(A)p.r(G)p.r(G)p.r(C)p.r(C)p.r(G)p.r(C)p.r(C)p.r(C)p.d(T)p.d(C)}$$$RNA1{StrandType:ss}|RNA2{StrandType:as}$	64.3
RNA1{r(G)p.r(G)p.r(G)p.r(G)p.r(U)p.r(G)p.r(G)p.r(C)p.r(A)p.r(G)p.r(G)p.r(C)p.r(G)p.r(U)p.r(U)p.r(C)p.r(A)p.r(A)p.r(G)p.d(T)p.d(T)}|RNA2{r(C)p.r(U)p.r(U)p.r(G)p.r(A)p.r(A)p.r(C)p.r(G)p.r(C)p.r(C)p.r(U)p.r(G)p.r(C)p.r(C)p.r(A)p.r(C)p.r(C)p.r(C)p.r(C)p.d(T)p.d(G)}$$$RNA1{StrandType:ss}|RNA2{StrandType:as}$	48.7
